In ChEMBL document CHEMBL1136974, “Selective inhibitors of tumor progression loci-2 (Tpl2) kinase with potent inhibition of TNF-alpha production in human whole blood” (Bioorg Med Chem Lett, 2009):

How the values were obtained:
[1] = Membrane permeability by PAMPA assay; format: ADME; settings: read-out: permeability
[2] = Selectivity of Tpl2 to Src
[3] = Selectivity of Tpl2 to PKA
[4] = Selectivity of Tpl2 to MK2
[5] = Selectivity of Tpl2 to p38
[6] = Selectivity of Tpl2 to PKC
[7] = Selectivity of Tpl2 to CAMK2
[8] = Selectivity of Tpl2 to EGFR
[9] = Clearance in rat; format: ADME, organism-based; settings: in vivo
[10] = Cmax in rat at 100 mg/kg, po; format: ADME, organism-based; set-up: dose 100 mg/kg, route oral; settings: in vivo
[11] = AUC in rat at 100 mg/kg, po; format: ADME, organism-based; set-up: dose 100 mg/kg, route oral; settings: plasma

CC(C)(C)n1cc(CNc2cc(Cl)c3ncc(C#N)c(Nc4ccc(F)c(Cl)c4)c3c2)nn1
0.1 ×10⁻⁶ cm/s: Papp [1]
10: fold change (FC) [2] | fold change (FC) [3] | fold change (FC) [4] | fold change (FC) [5] | fold change (FC) [6]

N#Cc1cnc2c(Cl)cc(NCc3cn(CCN)nn3)cc2c1Nc1ccc(F)c(Cl)c1
10: fold change (FC) [2] | fold change (FC) [3] | fold change (FC) [7] | fold change (FC) [4] | fold change (FC) [5] | fold change (FC) [6]

CC(C)N1CCC(n2cc(CNc3cc(Cl)c4ncc(C#N)c(Nc5ccc(F)c(Cl)c5)c4c3)nn2)CC1
10: fold change (FC) [2] | fold change (FC) [3] | fold change (FC) [7] | fold change (FC) [4] | fold change (FC) [5] | fold change (FC) [6]

N#Cc1cnc2c(Cl)cc(NCc3cn(Cc4cccnc4)nn3)cc2c1Nc1ccc(F)c(Cl)c1
10: fold change (FC) [2] | fold change (FC) [3] | fold change (FC) [7] | fold change (FC) [4] | fold change (FC) [5] | fold change (FC) [6]
0.18 ×10⁻⁶ cm/s: Papp [1]

CC(C)(C)n1cc(CNc2cc(Br)c3ncc(C#N)c(Nc4ccc(F)c(Cl)c4)c3c2)nn1
10: fold change (FC) [2] | fold change (FC) [3] | fold change (FC) [7] | fold change (FC) [4] | fold change (FC) [5] | fold change (FC) [6]

N#Cc1cnc2c(Cl)cc(NCc3c[nH]nn3)cc2c1Nc1ccc(F)c(Cl)c1
10: fold change (FC) [2] | fold change (FC) [3] | fold change (FC) [7] | fold change (FC) [4] | fold change (FC) [8] | fold change (FC) [5] | fold change (FC) [6]

N#Cc1cnc2c(Cl)cc(NCc3cn(CCN4CCOCC4)nn3)cc2c1Nc1ccc(F)c(Cl)c1
10: fold change (FC) [2] | fold change (FC) [3] | fold change (FC) [7] | fold change (FC) [4] | fold change (FC) [5] | fold change (FC) [6]

N#Cc1cnc2c(Cl)cc(NCc3cn(-c4ccncc4)nn3)cc2c1Nc1ccc(F)c(Cl)c1
10: fold change (FC) [2] | fold change (FC) [3] | fold change (FC) [7] | fold change (FC) [4] | fold change (FC) [5] | fold change (FC) [6]
28 mL/min/kg: clearance [9]

N#Cc1cnc2c(Cl)cc(NCc3cn(CC(=O)O)nn3)cc2c1Nc1ccc(F)c(Cl)c1
10: fold change (FC) [2] | fold change (FC) [3] | fold change (FC) [7] | fold change (FC) [4] | fold change (FC) [5] | fold change (FC) [6]
0.04 ×10⁻⁶ cm/s: Papp [1]

N#Cc1cnc2c(Cl)cc(NCc3cn(CCN4CCCCCC4)nn3)cc2c1Nc1ccc(F)c(Cl)c1
10: fold change (FC) [2] | fold change (FC) [3] | fold change (FC) [7] | fold change (FC) [4] | fold change (FC) [5] | fold change (FC) [6]

CN1CCC(n2cc(CNc3cc(Cl)c4ncc(C#N)c(Nc5ccc(F)c(Cl)c5)c4c3)nn2)CC1
10: fold change (FC) [2] | fold change (FC) [3] | fold change (FC) [7] | fold change (FC) [4] | fold change (FC) [5] | fold change (FC) [6]
0.39 ×10⁻⁶ cm/s: Papp [1]

N#Cc1cnc2c(Cl)cc(NCc3cn(-c4cccnc4)nn3)cc2c1Nc1ccc(F)c(Cl)c1
10: fold change (FC) [2] | fold change (FC) [3] | fold change (FC) [7] | fold change (FC) [4] | fold change (FC) [5] | fold change (FC) [6]

CN(C)CCn1cc(CNc2cc(Cl)c3ncc(C#N)c(Nc4ccc(F)c(Cl)c4)c3c2)nn1
10: fold change (FC) [2] | fold change (FC) [3] | fold change (FC) [7] | fold change (FC) [4] | fold change (FC) [5] | fold change (FC) [6]

N#Cc1cnc2c(Cl)cc(NCc3cn(CCN4CCCCC4)nn3)cc2c1Nc1ccc(F)c(Cl)c1
10: fold change (FC) [2] | fold change (FC) [3] | fold change (FC) [7] | fold change (FC) [4] | fold change (FC) [5] | fold change (FC) [6]

N#Cc1cnc2c(Cl)cc(NCc3cn(C4CCNCC4)nn3)cc2c1Nc1ccc(F)c(Cl)c1
10: fold change (FC) [2] | fold change (FC) [3] | fold change (FC) [7] | fold change (FC) [4] | fold change (FC) [5] | fold change (FC) [6]
0.03 ×10⁻⁶ cm/s: Papp [1]

N#Cc1cnc2c(Br)cc(NCc3cn(Cc4cccnc4)nn3)cc2c1Nc1ccc(F)c(Cl)c1
0.13 ×10⁻⁶ cm/s: Papp [1]
10: fold change (FC) [2] | fold change (FC) [3] | fold change (FC) [7] | fold change (FC) [4] | fold change (FC) [5] | fold change (FC) [6]

N#Cc1cnc2c(Cl)cc(NCc3cn(-c4ccccc4)nn3)cc2c1Nc1ccc(F)c(Cl)c1
10: fold change (FC) [2] | fold change (FC) [3] | fold change (FC) [7] | fold change (FC) [4] | fold change (FC) [5] | fold change (FC) [6]

N#Cc1cnc2c(Cl)cc(NCc3cn(Cc4ccccn4)nn3)cc2c1Nc1ccc(F)c(Cl)c1
10: fold change (FC) [2] | fold change (FC) [3] | fold change (FC) [7] | fold change (FC) [4] | fold change (FC) [5] | fold change (FC) [6]

CCN1CCC(n2cc(CNc3cc(Cl)c4ncc(C#N)c(Nc5ccc(F)c(Cl)c5)c4c3)nn2)CC1
0.36 ×10⁻⁶ cm/s: Papp [1]
10: fold change (FC) [2] | fold change (FC) [3] | fold change (FC) [7] | fold change (FC) [4] | fold change (FC) [5] | fold change (FC) [6]
4840 ng·h/mL: AUC [11]
6880: fold change (FC) [8]
517 ng/mL: Cmax [10]

CCCN1CCC(n2cc(CNc3cc(Cl)c4ncc(C#N)c(Nc5ccc(F)c(Cl)c5)c4c3)nn2)CC1
0.48 ×10⁻⁶ cm/s: Papp [1]
10: fold change (FC) [2] | fold change (FC) [3] | fold change (FC) [7] | fold change (FC) [4] | fold change (FC) [5] | fold change (FC) [6]

N#Cc1cnc2c(Br)cc(NCc3cn(-c4ccccc4)nn3)cc2c1Nc1ccc(F)c(Cl)c1
10: fold change (FC) [2] | fold change (FC) [3] | fold change (FC) [7] | fold change (FC) [4] | fold change (FC) [5] | fold change (FC) [6]
1.2 ×10⁻⁶ cm/s: Papp [1]

N#Cc1cnc2c(Cl)cc(NCc3cn(Cc4ccncc4)nn3)cc2c1Nc1ccc(F)c(Cl)c1
88 mL/min/kg: clearance [9]
10: fold change (FC) [2] | fold change (FC) [3] | fold change (FC) [7] | fold change (FC) [4] | fold change (FC) [5] | fold change (FC) [6]

CCN1CCC(CCn2cc(CNc3cc(Cl)c4ncc(C#N)c(Nc5ccc(F)c(Cl)c5)c4c3)nn2)CC1
10: fold change (FC) [2] | fold change (FC) [3] | fold change (FC) [7] | fold change (FC) [4] | fold change (FC) [5] | fold change (FC) [6]

N#Cc1cnc2c(Br)cc(NCc3c[nH]nn3)cc2c1Nc1ccc(F)c(Cl)c1
10: fold change (FC) [2] | fold change (FC) [3] | fold change (FC) [4] | fold change (FC) [5] | fold change (FC) [6]

N#Cc1cnc2c(Cl)cc(NCc3cn(C4CCN(C5CCC5)CC4)nn3)cc2c1Nc1ccc(F)c(Cl)c1
10: fold change (FC) [2] | fold change (FC) [3] | fold change (FC) [7] | fold change (FC) [4] | fold change (FC) [5] | fold change (FC) [6]
0.43 ×10⁻⁶ cm/s: Papp [1]

N#Cc1cnc2c(Br)cc(NCc3cn(CC(=O)O)nn3)cc2c1Nc1ccc(F)c(Cl)c1
1.8 ×10⁻⁶ cm/s: Papp [1]
10: fold change (FC) [2] | fold change (FC) [3] | fold change (FC) [7] | fold change (FC) [4] | fold change (FC) [5] | fold change (FC) [6]

N#Cc1cnc2c(Cl)cc(NCc3cn(Cc4ccccc4)nn3)cc2c1Nc1ccc(F)c(Cl)c1
10: fold change (FC) [2] | fold change (FC) [3] | fold change (FC) [7] | fold change (FC) [4] | fold change (FC) [5] | fold change (FC) [6]

N#Cc1cnc2c(Cl)cc(NCc3cn(CCC4CCCN4)nn3)cc2c1Nc1ccc(F)c(Cl)c1 (stereo not drawn)
10: fold change (FC) [2] | fold change (FC) [3] | fold change (FC) [7] | fold change (FC) [4] | fold change (FC) [5] | fold change (FC) [6]
0.57 ×10⁻⁶ cm/s: Papp [1]

CN1CCCC1CCn1cc(CNc2cc(Cl)c3ncc(C#N)c(Nc4ccc(F)c(Cl)c4)c3c2)nn1 (stereo not drawn)
10: fold change (FC) [2] | fold change (FC) [3] | fold change (FC) [7] | fold change (FC) [4] | fold change (FC) [5] | fold change (FC) [6]

N#Cc1cnc2c(Br)cc(NCc3cn(CCC4CCCN4)nn3)cc2c1Nc1ccc(F)c(Cl)c1 (stereo not drawn)
0.72 ×10⁻⁶ cm/s: Papp [1]
10: fold change (FC) [2] | fold change (FC) [3] | fold change (FC) [7] | fold change (FC) [4] | fold change (FC) [5] | fold change (FC) [6]

N#Cc1cnc2c(Cl)cc(NCc3cn(CCCN)nn3)cc2c1Nc1ccc(F)c(Cl)c1
10: fold change (FC) [2] | fold change (FC) [3] | fold change (FC) [7] | fold change (FC) [4] | fold change (FC) [5] | fold change (FC) [6]
